Measured values: patent EP4745134A1 (Jiangsu Yahong Meditech Co., Ltd., priority 2023, dated 2025)
pIC50: −log10 of the molar value. Like-named read-outs stand apart in the source and are kept apart here.

Legend:
[1] = test system: HCT116 MTAP KO cells; test: Inhibitory activity against cell proliferation (CellTiter Glo, 6 days), HCT116 MTAP KO; assay type: cell-based; details: for pIC50: HCT116 MTAP KO cells, 6 days, CellTiter Glo, read-out: HCT116 MTAP KO IC50; for Selectivity HCT 116-WT/ HCT116 MTAP KO: ratio of IC50 HCT116-WT / HCT116 MTAP KO
Protocol: (§1) HCT116-WT (ATCC, CCL-247) and HCT116 MTAP KO (Nanjing Cobioer, CBP75002) cells were seeded into white low-transparency sterile 96-well cell culture plates at a density of 250 cells per well respectively, and the culture medium was McCoy's 5A Medium+10% FBS. The plates were placed under the condition of 37°C and 5% CO2 to be cultured overnight. The cells were treated with 4-fold serially diluted compounds of 8 concentration points starting at an initial concentration of 10000 nM, and the last two columns were used as control wells to which only DMSO was added. The drug-treated cells were further cultured for 6 days. On day 7, CellTiter Glo® reagent was added at 50 uL per well, and after reaction under shaking for 10 minutes at room temperature, the chemiluminescence signals were detected for the well plates through the chemiluminescence detection method using a BIOTEK H1 multifunctional microplate-reader. The IC50 values for inhibition of the compounds on cell viability were calculated in X1fit 5.0 software. Table 2. IC50 values for inhibition of the compounds on HCT116 MTAP KO/WT cell growth

[2] = test system: HCT116-WT cells; test: Inhibitory activity against cell proliferation (CellTiter Glo, 6 days), HCT116-WT; assay type: cell-based; details: 144 h, HCT116-WT cells, 6 days, CellTiter Glo; read-out: HCT116-WT IC50
Protocol: as §1

[3] = molecular target: PRMT5-MTA (Homo sapiens, UniProt O14744); test: Enzymatic inhibitory activity against PRMT5-MTA (AlphaScreen); assay type: biochemical; details: read-out: IC50
Chain of PRMT5-MTA (O14744 whole entry): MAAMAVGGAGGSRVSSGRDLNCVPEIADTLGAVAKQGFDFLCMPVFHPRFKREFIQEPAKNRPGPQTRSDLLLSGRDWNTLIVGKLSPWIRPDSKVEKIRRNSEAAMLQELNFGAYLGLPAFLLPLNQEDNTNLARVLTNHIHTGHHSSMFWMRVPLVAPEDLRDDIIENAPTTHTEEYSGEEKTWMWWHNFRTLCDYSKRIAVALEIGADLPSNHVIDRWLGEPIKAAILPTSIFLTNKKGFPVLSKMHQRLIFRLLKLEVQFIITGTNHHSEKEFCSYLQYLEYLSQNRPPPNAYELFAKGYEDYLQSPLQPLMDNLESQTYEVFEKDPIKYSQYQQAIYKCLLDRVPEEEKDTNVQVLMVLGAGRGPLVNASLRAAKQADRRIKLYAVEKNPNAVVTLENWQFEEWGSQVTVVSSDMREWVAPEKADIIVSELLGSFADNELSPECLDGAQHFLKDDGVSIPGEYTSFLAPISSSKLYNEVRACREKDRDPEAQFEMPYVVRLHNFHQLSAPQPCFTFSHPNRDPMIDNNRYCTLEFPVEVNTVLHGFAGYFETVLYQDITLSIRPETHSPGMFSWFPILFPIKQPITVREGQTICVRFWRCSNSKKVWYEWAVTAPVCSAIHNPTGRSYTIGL
Chain of PRMT5-MTA (Q9BQA1 whole entry partner): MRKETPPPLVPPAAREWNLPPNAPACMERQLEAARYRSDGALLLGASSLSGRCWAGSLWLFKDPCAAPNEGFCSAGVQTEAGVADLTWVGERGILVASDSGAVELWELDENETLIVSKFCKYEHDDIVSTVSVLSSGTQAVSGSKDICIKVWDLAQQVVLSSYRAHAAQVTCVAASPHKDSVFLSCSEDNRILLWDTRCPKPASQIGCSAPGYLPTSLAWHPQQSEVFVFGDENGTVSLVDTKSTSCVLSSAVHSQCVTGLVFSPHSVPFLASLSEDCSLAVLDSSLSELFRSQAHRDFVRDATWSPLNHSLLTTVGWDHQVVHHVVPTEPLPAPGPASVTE
In short: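 PRMT5/[…] (1 nM) was preincubated for 30 min at room temperature with 1 µM […] and 2.5 µM SAM, then exposed to compound (10-point, 3-fold from 1000 nM) for 15 min at 23 °C. Histone H4 substrate (5 nM) was added and reacted for 45 min at 23 °C. Symmetric dimethyl-R3 H4 was detected by AlphaScreen and IC50 calculated.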

pIC50 ([1]; Homo sapiens, HCT-116, 144 h)	pIC50 [2]	pIC50 [3]	pIC50 [1]	SMILES	Selectivity HCT 116-WT/ HCT116 MTAP KO [1]
7.18	5.72			Cc1cc2cc(C(=O)N(Cc3ccc(C(C)(C)F)cn3)N(C)c3ncccn3)ccc2nc1N [Example 288, 2-amino-N-((5-(2-fluoroprop-2-yl)pyridin-2-yl)methyl)-N',3-dimethyl-N'-(pyrimidin-2-yl)quinoline-6-carbohydrazide]	28.91
6.34		8.21		Cc1cc2nc(N)c3cnn(C)c3c2cc1C(=O)N1CCCN1c1ccccn1 [Example 349, (4-amino-1,7-dimethyl-1H-pyrazolo[4,3-c]quinolin-8-yl)(2-(pyridin-2-yl)pyrazolidin-1-yl)methanone]	
7.59	6.15			Cc1cc2cc(C(=O)N(Cc3ccc(-c4ccn(C)c(=O)c4)cn3)N(C)c3ncccn3)ccc2nc1N [Example 209, 2-amino-N',3-dimethyl-N-((1'-methyl-2'-oxo-1',2'-dihydro-[3,4'-bipyridine]-6-yl)methyl)-N'-(pyrimidin-2-yl)quinoline-6-car bohydrazide]	27.54
< 5.00		8.33		Nc1nc2ccc(C(=O)N3CCCN3c3ccc(C(F)(F)F)cn3)cc2c2c1COC2 [Example 341, (4-amino-1,3-dihydrofuro[3,4-c]quinolin-8-yl)(2-(5-(trifluoromethyl)pyridin-2-yl)pyrazolidin-1-yl)methanone]	
6.34		8.33		Cc1cc2nc(N)c3cnn(C)c3c2cc1C(=O)N1CCCN1c1ccc(F)cn1 [Example 344, (4-amino-1,7-dimethyl-1H-pyrazolo[4,3-c]quinolin-8-yl)(2-(5-fluoropyridin-2-yl)pyrazolidin-1-yl)methanone]	
6.08		8.47		Cc1cc2nc(N)c3cnn(C)c3c2cc1C(=O)N1CCCN1c1ccc(C(F)(F)F)nc1 [Example 329, (4-amino-1,7-dimethyl-1H-pyrazolo[4,3-c]quinolin-8-yl)(2-(6-(trifluoromethyl)pyridin-3-yl)pyrazolidin-1-yl)methanone]	
6.39		8.22		Cc1cc2nc(N)c3cnn(C)c3c2cc1C(=O)N1CCCN1c1ncccn1 [Example 332, (4-amino-1,7-dimethyl-1H-pyrazolo[4,3-c]quinolin-8-yl)(2-(pyrimidin-2-yl)pyrazolidin-1-yl)methanone]	
		8.60	6.55	Cc1cc2nc(N)c3cnn(C)c3c2cc1C(=O)N1C(C)CCN1c1ncccc1F (stereo not drawn) [Example 375, (4-amino-1,7-dimethyl-1H-pyrazolo[4,3-c]quinolin-8-yl)(2-(3-fluoropyridin-2-yl)-5-methylpyrazolidin-1-yl)methanone]	
		8.70		CCN(C(=O)c1ccc2nc(N)c3c(c2c1)COC3)N(C)c1ccc(C(F)(F)F)cc1 [Example 115, 4-amino-N-ethyl-N-methyl-N-(4-(trifluoromethyl)phenyl)-1,3-dihydrofuro[3,4-c]quinoline-8-carbohydrazide]	
		8.72		Cc1cc2cc(C(=O)N(Cc3ccc(C(F)(F)F)cn3)N(C)c3ncccc3Br)ccc2nc1N [Example 106, 2-amino-N'-(3-bromopyridin-2-yl)-N',3-d imethyl-N-((5-(trifluoromethyl)pyridin-2-yl)methyl)quinoline-6-carbohydrazide]	
		8.21		Cc1cc2nc(N)c3cnn(C)c3c2cc1C(=O)N1CC(C)CN1c1ncccc1C(F)(F)F (stereo not drawn) [Example 399, (4-amino-1,7-dimethyl-1H-pyrazolo[4,3-c]quinolin-8-yl)(4-methyl-2-(3-(trifluoromethyl)pyridin-2-yl)pyrazolidin-1-yl)met hanone]	

SMILES	pIC50 ([1]; Homo sapiens, HCT-116, 144 h)	pIC50 [2]	pIC50 [3]	pIC50 [1]	Selectivity HCT 116-WT/ HCT116 MTAP KO [1]
Cc1cc2cc(C(=O)N(Cc3ccc(-c4ccc(N(C)CCN(C)C)nc4)cn3)N(C)c3ncccn3)ccc2nc1N [Example 260, 2-amino-N-((6'-((2-(dimethylamino)ethyl)(methyl)amino)-[3,3'-bipyridine]-6-yl)methyl) -N', 3-dimethyl-N'-(pyrimidin-2-yl)quinoline-6-carbohydrazide]	7.68	6.33			22.14
